The compound `CN1CCc2c(cccc2NC(=O)c2ccccc2I)C1` displayed a melting point of 215 to 216 °C.

`CC1=C(C(=O)OC(C)(C)C)C(c2ccc(Br)cc2)C(C(=O)OC(C)(C)C)=C(C)N1`: the melting point fell in the range of 206 to 207 °C.

The compound `COc1ccc(-c2cnc3c(-c4cc(-c5ccccc5)cs4)cnn3c2O)cc1Br` showed a melting point of more than 300 °C.

`O=C1Nc2ccccc2Cc2sccc21` returned a melting point of 225 to 236 °C.

In turn, `CC(Cc1ccc2c(c1)OCO2)C(=O)O` (configuration not stated) showed a melting point of 121 °C.

Compound `CC(C)(C)OC(=O)N1CCC(Nc2nc3ccccc3n2Cc2cnc(CO)o2)CC1` had a melting point of 132 °C.

The compound `Cc1ccc(Cn2cc(C(=O)C(=O)O)c3cc(-c4ccc(OC(F)(F)F)cc4)ccc32)cc1` yielded a melting point of 192 to 193 °C.

`O=C1c2ccccc2C=C(Cl)Cc2ccccc21` returned a melting point of 109 to 110 °C.

As for `CCCn1c(=O)c2[nH]c(/C=C/c3ccc(OC)c(C)c3C)nc2n(CCC)c1=O`, the melting point came out at 271 °C.

`Cc1c(NC(=O)CC(C)(C)C)c(C)c2c(c1-c1ccccc1)OCC2c1ccc(C(C)C)cc1` (configuration not stated) registered a melting point of 178 to 182 °C.

In turn, `COc1cc(C=C(C(=O)NC2CCC(C)CC2)c2ccccc2)ccc1OC(C)=O` (configuration not stated) had a melting point of 136 to 140 °C.

Compound `COc1ccc(-c2cc(Cl)c3c(Cl)c(O)ccc3c2)cc1` displayed a melting point of 132 to 134 °C.

On to `Cc1nc(C)c(Cl)c(NCc2nccc(OCCOCCSCCn3c([N+](=O)[O-])cnc3C)c2C)n1`, for which the melting point lay in the range of 102 to 105 °C.

`CC(C)(C)OC(=O)CS` registered a melting point of 72 °C.

With `N[C@H](CCC(=O)N1[C@H](C(=O)O)C[C@@H]2CCCC[C@@H]21)C(=O)O`, the melting point fell in the range of 191 to 192 °C.

Consider `N#Cc1cccnc1N1CCN(CC(=O)Nc2ccccc2C(F)(F)F)CC1`, for which the melting point lay in the range of 143 to 145 °C.

With `CN(C)C(=O)Cc1ccc2[nH]cc(CCN3C(=O)c4ccccc4C3=O)c2c1`, the melting point lay in the range of 193 to 194 °C.

On to `CCOC(=O)C1C2C1S(=O)(=O)CC2(N)C(=O)OCC` (configuration not stated), for which the melting point lay within 80 to 83 °C.

In the case of `C[C@@H](S[C@H]1CO[C@H](/C=C/C=C/c2ccc(C#N)cc2)OC1)[C@](O)(Cn1cncn1)c1ccc(F)cc1F`, the melting point was in the range of 147 to 149 °C.

On to `c1ccc(C2CCNC3=NCCN32)cc1` (configuration not stated), for which the melting point came out at 146 °C.

Consider `COC=C(C#N)Cc1ccc(OC)c(OC)c1`, for which the melting point is 64 to 65 °C.

`CN1CC(CCCCN2CCN(c3ccccc3O)CC2)OC1=O` (configuration not stated) showed a melting point of 106 to 110 °C.

`C=C1SC(=O)N(c2ccc3cc(-c4ccc(OC)c(C56CC7CC(CC(C7)C5)C6)c4)ccc3c2)C1=O`: the melting point fell in the range of 286 to 287 °C.

Take `Cc1ccc2c(c1)nnn2C(=O)N(c1ccccc1)c1ccccc1`: the melting point fell in the range of 132 to 133 °C.

As for `CN1C(=O)CCC2(C)c3ccc(-c4cccc(F)c4)cc3CCC12` (single isomer, unassigned; (+)), the melting point fell in the range of 116 to 120 °C.

As for `COc1ccc(C=O)cc1OC1CC=CC1`, the melting point fell in the range of 60 to 62 °C.

`N#Cc1c(N2CCCCC2)cc(-c2ccc(Br)cc2)c2c1Cc1ccccc1-2`: the melting point amounted to 212 °C.

The compound `COc1nc2c(cc1C#N)CCCCC2` yielded a melting point of 83.5 to 84 °C.

Turning to `Oc1ccc2c(c1)OCC(c1cccc(C(F)(F)F)c1)C2c1ccc(OCCN2CCCCC2)cc1` (configuration not stated), the melting point lay in the range of 118 to 119 °C.

For the compound `C[C@@H](NC(=O)c1sc(-c2ccc(Cl)cc2)cc1N)[C@](O)(Cn1cncn1)c1ccc(F)cc1F`, the melting point lay within 107 to 111 °C.

Consider `CCc1c(N)cccc1NC(=O)OC(C)(C)C`, for which the melting point is 109 to 110 °C.

The compound `CC(C)(C)OC(=O)N1CC(c2ccc(N=C(c3ccccc3)c3ccccc3)nc2)C1` gave a melting point of 104 to 105 °C.

Regarding `CCOc1ccc(C(c2ccc(C(C)(C)C)cc2)C(C)[N+](=O)[O-])cc1` (configuration not stated), the melting point lay within 79 to 82 °C.

`COc1cc(N)c2nccc(C)c2c1Oc1ccc(F)cc1` registered a melting point of 143 to 144 °C.

Regarding `COc1cccc2c(CCBr)coc12`, the melting point lay in the range of 61 to 62 °C.

Regarding `COc1c(C)cnc(C(Br)C#N)c1C` (configuration not stated), the melting point is 56 to 57 °C.

`COc1ccc(CSC2(C(=O)O)CCCCC2)cc1`: the melting point came out at 98 °C.

Consider `COc1c(Cc2ccccc2)cc(C(=O)c2cccs2)c2ccccc12`, for which the melting point lay in the range of 111 to 113 °C.

With `O=C(OCCOC(c1ccccc1)(c1ccccc1)c1ccccc1)Oc1ccc([N+](=O)[O-])cc1`, the melting point lay in the range of 136 to 141 °C.

`CC1NC(=O)NN=C1c1ccc(NC(=O)Nc2ccccc2)cc1` (configuration not stated) gave a melting point of more than 140 °C.

`CCOC(=O)C(=O)Nc1cc2[nH]c(=O)c(=O)n(C3CCCCC3)c2cc1[N+](=O)[O-]`: the melting point stood at 260 °C.

Consider `COc1ccc(-c2cc(Cl)cc3c2NC(CN)CO3)c(Cl)c1` (configuration not stated), for which the melting point worked out at 105 °C.

As to `COC(=O)Nc1cc2c(cn1)[nH]c1ccccc12`, the melting point was 180 to 182 °C.

`CCOC(=O)c1cc2c(Cl)ncnc2[nH]1` showed a melting point of 219 to 221 °C.

In turn, `OC(CCN1CCC(c2ccc(F)cc2)CC1)c1ccc(Cl)cc1` (configuration not stated) returned a melting point of 108 to 110 °C.

In the case of `CC(=O)Oc1cc2occ(C=O)c(=O)c2cc1OC(C)=O`, the melting point fell in the range of 133 to 135 °C.

The compound `O=[N+]([O-])c1cnccc1NCc1ccccc1` gave a melting point of 100 to 104 °C.

Take `CC(=O)NC[C@H]1CN(c2cccc(F)c2)C(=O)O1`: the melting point is 140 °C.

Take `Cc1c(Cc2cc(=O)n(C3CCCCC3)[nH]2)c2ccccc2n1C(=O)c1ccc(Cl)cc1`: the melting point stood at 98 °C.

In the case of `C[C@H](NC(=O)Cc1cc(F)cc(F)c1)C(=O)N[C@@H]1C(=O)NCCS[C@@H]1c1ccccc1`, the melting point is 128 to 133 °C.

Compound `COc1cccc2c(CCCCNC3COc4c(F)ccc(C(N)=O)c4C3)coc12` (configuration not stated) registered a melting point of 138 to 141 °C.

The compound `CC(C)n1c(/C=C/C2CC(O)CC(=O)O2)c(-c2ccc(F)cc2)c2ccccc2c1=O` (configuration not stated) yielded a melting point of 151 to 154 °C.

`O=S(=O)(NCCCl)c1ccccc1` returned a melting point of 58 to 62 °C.

As for `CC(C)(C)OC(=O)N1CCC(=Cc2ccc3ccccc3n2)CC1`, the melting point lay within 72 to 73 °C.

`COc1cc(S(N)(=O)=O)cnc1Cl` had a melting point of 156 to 158 °C.

The compound `CCOC(=O)c1ccc(Cn2c(NC3CCN(C(=O)OCC)CC3)nc3ccccc32)o1` yielded a melting point of 136 °C.

As for `CCNc1ccc(Cl)nc1`, the melting point lay within 65 to 66 °C.

Take `CCOC(=O)c1cc(C#N)c(C)nc1Cl`: the melting point is 43 to 45 °C.

`Ic1n[nH]c2ccccc12` gave a melting point of 54 to 55 °C.

As to `CC1(C)CC(=O)c2c(Oc3ccccc3)sc(-c3cc[nH]n3)c2C1`, the melting point fell in the range of 232 to 234 °C.

Regarding `O=C1c2cc(Br)ccc2COc2ccccc21`, the melting point lay in the range of 104 to 106 °C.

Regarding `COc1ccccc1Oc1c(O)nc(-c2cccc(OCc3ccccc3)c2)nc1O`, the melting point is 192 to 195 °C.

`Cn1ncc(N2CCCCC2)c(-c2ccccc2C=NO)c1=O`: the melting point was in the range of 184 to 185 °C.

The compound `COc1nc2cc([N+](=O)[O-])c(C)c(C(=O)N3CCCNCC3)c2nc1OC` came in with a melting point of 141 to 143 °C.

On to `CCCCCCCCCCCCc1cn(C(C(=O)O)c2ccccc2)cn1` (configuration not stated), for which the melting point fell in the range of 110 to 118 °C.

As for `Cc1nccn1-c1nc(-c2ccc(Cl)cc2)c(CCCn2cccn2)o1`, the melting point was 129 to 130 °C.

`CCNC(=O)c1ccc(-c2cnc3c(c2)N(Cc2ccccc2)C(=O)CN3)cc1` showed a melting point of 195 °C.

On to `ClCc1cc(-c2ccccc2)no1`, for which the melting point lay within 69 to 70 °C.

The compound `CCCCCCCCCCCCCCCCCCOc1cc(OCCCOc2ccc(O)cc2)cc(C(=O)OC)c1` yielded a melting point of 85 to 88 °C.

Take `CCOC(=O)c1ncoc1-c1ccc([N+](=O)[O-])cc1Cl`: the melting point was in the range of 140 to 141 °C.

In turn, `CS(=O)(=O)Nc1cc2occc(=O)c2cc1Oc1ccccc1C(=O)O` showed a melting point of 243 to 246 °C.

For the compound `NS(=O)(=O)OCCOc1cccc(OCc2ccccc2)c1`, the melting point lay in the range of 107 to 109 °C.

Take `COc1ccccc1CNc1ccc2c(CNC(=O)c3ccc(F)cc3)cccc2n1`: the melting point is 162 °C.

On to `Nc1ccc(-c2cccc([N+](=O)[O-])c2)cc1O`, for which the melting point was 175 to 176 °C.

In turn, `CN(C)c1c(C#N)c(N)nn1C` yielded a melting point of 100 to 102 °C.

In turn, `CC(NC(Nc1cc(C(F)(F)F)cc(C(F)(F)F)c1)=C(C#N)S(C)(=O)=O)C(C)(C)C` (configuration not stated) came in with a melting point of 181 to 182 °C.

Regarding `COC(=O)c1cccc(=O)n1C`, the melting point lay within 56 to 57 °C.

Compound `CCOc1ccccc1-c1nc2c(C(N)=O)cccc2c(=O)[nH]1` displayed a melting point of 252 to 254 °C.

Take `N#Cc1cccc(CSc2nnc(-c3ccc4nccn4c3)o2)c1`: the melting point fell in the range of 175 to 176 °C.

As to `Nc1ccc(CCC(=O)NC23CC4CC(CC(C4)C2)C3)cc1N`, the melting point is 151 to 152 °C.

For `O=c1[nH]c2cc(Sc3cccc4cnccc34)c([N+](=O)[O-])cc2[nH]1`, the melting point was more than 270 °C.

`Cc1cc(OC(F)F)nc(N)n1` yielded a melting point of 136 to 137 °C.

On to `NS(=O)(=O)Nc1ccc(CCN2CCC(COC(c3ccccc3)c3ccccc3)CC2)cc1`, for which the melting point was in the range of 172 to 174 °C.

`CC(C)(O)CC(O)=C(C#N)CC(=O)Nc1ccccc1` yielded a melting point of 103 °C.

Regarding `COC(=O)c1cc(C(=O)OC)cc(N(C)C)c1`, the melting point was in the range of 118 to 121 °C.

In turn, `NC(=O)c1cccc(-c2ccc3nnn(Cc4ccc5ncccc5c4)c3n2)c1` returned a melting point of 263 to 265 °C.

Take `Cc1cc(C(F)(F)F)cc(=O)n1C`: the melting point lay in the range of 80 to 82 °C.

`CC(C)C[C@H](NC(=O)[C@H](Cc1ccccc1)NC(=O)CCC(=O)O)C(=O)O` registered a melting point of 156 to 158 °C.

Turning to `CCOC(=O)c1cc(N(C)C)ncn1`, the melting point lay within 40 to 42 °C.

Compound `CNC(=C[N+](=O)[O-])NCCSCc1cc(CN2CCCC2)cs1` yielded a melting point of 109 to 111 °C.

`CNC1=Nc2ccc(Cl)cc2C(c2ccccc2F)=NC1` yielded a melting point of 204 to 206 °C.

On to `COC(=O)c1c(C)[nH]c(C)c1C1=CC(=O)c2cccc(O)c2C1=O`, for which the melting point was in the range of 98 to 99 °C.

One may read the melting point as the temperature, or range, at which the solid turns liquid.
